Results taken from ChEMBL document CHEMBL1140151, “Alpha,beta-methylene-2'-deoxynucleoside 5'-triphosphates as noncleavable substrates for DNA polymerases: isolation, characterization, and stability studies of novel 2'-deoxycyclonucleosides, 3,5'-cyclo-dG, and 2,5'-cyclo-dT” (J Med Chem, 2008).
Active and inactive are the calls of the source. The rule behind the calls is not given here.

Tests used:
DNA polymerase beta [1] = target: T1, DNA polymerase beta (Homo sapiens, UniProt P06746); assay: Inhibition of human DNA polymerase beta
DNA polymerase beta [2] = target: T1, DNA polymerase beta; assay: Inhibition of human DNA polymerase beta assessed as inhibition of dCTP incorporation by gap filling assay

Row | Ki (DNA polymerase beta [1]) [nM] | Activity (DNA polymerase beta [2]) | SMILES
1 | 1000 |  | Nc1nc2c(ncn2[C@H]2C[C@H](O)[C@@H](COP(=O)(O)CP(=O)(O)OP(=O)(O)O)O2)c(=O)[nH]1
2 | 5000 |  | Nc1ncnc2c1ncn2[C@H]1C[C@H](O)[C@@H](COP(=O)(O)CP(=O)(O)OP(=O)(O)O)O1
3 | 900 | Active | Nc1ccn([C@H]2C[C@H](O)[C@@H](COP(=O)(O)CP(=O)(O)OP(=O)(O)O)O2)c(=O)n1

Row | SMILES | Ki (DNA polymerase beta [1]) [nM] | Activity (DNA polymerase beta [2])
4 | Cc1cn([C@H]2C[C@H](O)[C@@H](COP(=O)(O)CP(=O)(O)OP(=O)(O)O)O2)c(=O)[nH]c1=O | 600 | 
